For data set [1], the system named is Streptococcus faecium. The conditions noted are these: cited from earlier work.
In data set [2] the test system is Streptococcus faecium. Description: Growth inhibition of Streptococcus faecium (ATCC 8043). The conditions noted are these: for Minimum Inhibitory Concentration50 for growth inhibition, S. faecium: S. faecium ATCC 8043; for Minimum Inhibitory Concentration50 for growth inhibition, S. faecium / IC50: folate concentration = 1 ng/mL; for potency against S. faecium, comparison: comparison in words; for IC50: Enterococcus faecium, ATCC8043, read-out: Minimum Inhibitory Concentration50 for growth inhibition, S. faecium, S. faecium ATCC 8043. It counts as cell-based.

A further data set deals with L1210 cells. Nature of the data set: Growth inhibition of L1210 cells. It counts as cell-based. The conditions noted are these: for IC50: average of 3-6 runs, standard error less than 15%, read-out: growth inhibn (minimum inhibitory concentration50); for inhibition of growth for L1210 cells, comparison between isomers: comparison in words.
The target in data set [3] is T1, transport protein of L1210 (Mus musculus, UniProt P41438).
T1 sequence (P41438 1-512): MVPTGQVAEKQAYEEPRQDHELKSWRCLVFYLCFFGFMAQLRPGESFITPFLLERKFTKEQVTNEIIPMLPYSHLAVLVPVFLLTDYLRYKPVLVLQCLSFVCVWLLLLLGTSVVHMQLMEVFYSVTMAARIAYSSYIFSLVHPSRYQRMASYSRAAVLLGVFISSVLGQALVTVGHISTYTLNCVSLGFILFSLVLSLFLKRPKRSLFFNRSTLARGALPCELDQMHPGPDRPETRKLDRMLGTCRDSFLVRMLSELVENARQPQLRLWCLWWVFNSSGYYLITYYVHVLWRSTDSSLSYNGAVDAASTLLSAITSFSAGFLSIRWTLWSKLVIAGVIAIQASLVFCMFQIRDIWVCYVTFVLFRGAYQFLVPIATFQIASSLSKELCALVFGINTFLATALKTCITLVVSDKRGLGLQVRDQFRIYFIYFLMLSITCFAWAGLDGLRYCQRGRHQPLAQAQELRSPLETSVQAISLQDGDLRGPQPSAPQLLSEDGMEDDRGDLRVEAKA
Nature of the data set: Transport (influx, efflux) in L1210 cells. The conditions noted are these: average of 3-6 runs, standard error less than 15%. It counts as cell-based.

The target of data set [4] is T2, dihydrofolate reductase derived from L1210 (Mus musculus, UniProt P00375).
T2 construct: dihydrofolate reductase derived from L1210; endogenous in cells; host or cells: L1210 cells
T2 sequence (P00375 1-187): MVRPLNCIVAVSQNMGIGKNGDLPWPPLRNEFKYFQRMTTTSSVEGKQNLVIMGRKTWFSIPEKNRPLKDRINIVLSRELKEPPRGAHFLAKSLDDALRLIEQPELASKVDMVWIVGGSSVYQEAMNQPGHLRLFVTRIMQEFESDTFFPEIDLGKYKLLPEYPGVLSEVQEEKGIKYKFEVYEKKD
Description: Inhibition of dihydrofolate reductase derived from L1210 cells. It counts as biochemical. The following applies: comparison in words.

In another data set the test system is L1210 leukemia. Description: Antitumor activity against L1210 leukemia in mice. It counts as in vivo, BD (2) F1 female mice. The conditions noted are these: sc every 2 days times 5; for Mean Survival Time: untreated control 6.6 days.
Setting [5] is: Mus musculus, L1210, L1210 cells.

≈ marks a conversion by molar mass, not a printed value. Read-outs that look alike come from different tables or passages of the source.

Consider `Nc1nc2c(c(=O)[nH]1)NC(CCc1ccc(C(=O)O)cc1)CN2` (stereo not drawn), for which the “growth-inhibitory activity against Streptococcus faecium” value in the data set on Streptococcus faecium [1] was “Activity was greatly enhanced by reduction to the tetrahydro compound”.

Consider `CCC(CC1CNc2nc(N)nc(N)c2N1)c1ccc(C(=O)N[C@@H](CCC(=O)O)C(=O)O)cc1` (mixture of isomers) [5,6,7,8-tetrahydro racemic mixture], for which, in the data set on Streptococcus faecium [2], the “Minimum Inhibitory Concentration50 for growth inhibition, S. faecium” value was 2.6 ng/mL.

`CC(Cc1cnc2nc(N)nc(N)c2n1)c1ccc(C(=O)N[C@@H](CCC(=O)O)C(=O)O)cc1` (single isomer, unassigned) [d, L-10-methyl, 10-methyl-10-deazaminopterin]: the IC50 with L1210 cells (L1210 cells) worked out at 0.68 nM. In addition, in the data set on L1210 cells, the “inhibition of growth for L1210 cells, comparison between isomers” value (from here on “inhibition of growth for L1210 cells”) is recorded as “not a significant difference”. The compound also had a transport efflux k in data set [3] of 0.258 min⁻¹. In data set [4], the “inhibition of dihydrofolate reductase derived from L1210, comparison between isomers” value is “not significantly different from one another or MTX”.

On to `CCC(Cc1cnc2nc(N)nc(N)c2n1)c1ccc(C(=O)N[C@@H](CCC(=O)O)C(=O)O)cc1` (single isomer, unassigned) [l, L-10-ethyl, l,L-10-ethyl-10-deazaminopterin], for which the IC50 in the data set with L1210 cells (setting [5]) worked out at 1.52 nM. For the same compound, the “inhibition of growth for L1210 cells” value in the data set with L1210 cells is “only one-third as potent as the d,L isomer”. Moreover, the “potency against S. faecium, comparison” value with Streptococcus faecium [2] is on record as “slightly more potent than the d,L-isomer”. This compound also yielded a transport efflux k in data set [3] of 0.249 min⁻¹.

Regarding `CC(Cc1cnc2nc(N)nc(N)c2n1)c1ccc(C(=O)N[C@@H](CCC(=O)O)C(=O)O)cc1` (single isomer, unassigned) [l, L-10-methyl, 10-methyl-10-deazaminopterin], in the data set on L1210 cells (setting [5]), the IC50 amounted to 1.18 nM. For the same compound, the “inhibition of growth for L1210 cells” value in the data set with L1210 cells is “not a significant difference”. The same compound had a transport efflux k in data set [3] of 0.267 min⁻¹. The “inhibition of dihydrofolate reductase derived from L1210, comparison between isomers” value in data set [4] is “not significantly different from one another or MTX”.

For the compound `CCC(CC1CNc2nc(N)nc(N)c2N1)c1ccc(C(=O)N[C@@H](CCC(=O)O)C(=O)O)cc1` (stereo partly drawn) [5,6,7,8-tetrahydro d, L], in the data set on Streptococcus faecium [2], the “Minimum Inhibitory Concentration50 for growth inhibition, S. faecium” value amounted to 2.5 ng/mL and the “potency against S. faecium, comparison” value is recorded as “slightly more potent than the l,L isomer”.

As for `CCC(CC1CNc2nc(N)nc(N)c2N1)c1ccc(C(=O)N[C@@H](CCC(=O)O)C(=O)O)cc1` (stereo partly drawn) [5,6,7,8-tetrahydro l, L], in the data set on Streptococcus faecium [2], the IC50 is 3.1 ng/mL (≈ 6.57 nM).

For the compound `CCC(CC1=Nc2c(N)nc(N)nc2NC1)c1ccc(C(=O)N[C@@H](CCC(=O)O)C(=O)O)cc1` (stereo partly drawn) [7,8-dihydro l, L], in the data set on Streptococcus faecium [2], the IC50 stood at 1.1 ng/mL (≈ 2.34 nM).

`Nc1nc2ncc(CCc3ccc(C(=O)O)cc3)nc2c(=O)[nH]1` [10-deazapteroic acid]: the “growth-inhibitory activity against Streptococcus faecium” value in the data set with Streptococcus faecium [1] is “potent growth-inhibitory activity”.

Turning to `CN(Cc1cnc2nc(N)nc(N)c2n1)c1ccc(C(=O)N[C@@H](CCC(=O)O)C(=O)O)cc1` [methotrexate, reference compound], the IC50 in the data set with L1210 cells (L1210 cells) came to 2.48 nM. Further, the 30-day survivors with L1210 leukemia (9 mg/kg), in the data set with L1210 leukemia (12 mg/kg), in the data set with L1210 leukemia (18 mg/kg) and in the data set with L1210 leukemia (24 mg/kg) was 0/10 in each case. For the same compound, the “Increased Life Span” value with L1210 leukemia (9 mg/kg) was “+137%”; in the data set with L1210 leukemia (18 mg/kg), “+119%”; in the data set with L1210 leukemia (24 mg/kg), “+46%”. Besides, the Toxic deaths in the data set with L1210 leukemia (9 mg/kg) is 0/10; in the data set on L1210 leukemia (12 mg/kg), 1/10; in the data set with L1210 leukemia (18 mg/kg), 6/10; with L1210 leukemia (24 mg/kg), 10/10. Further, the “Mean Survival Time” value in the data set with L1210 leukemia (9 mg/kg) worked out at 15.7 ± 0.4 days; in the data set with L1210 leukemia (12 mg/kg), 16.3 ± 0.7 days; in the data set with L1210 leukemia (18 mg/kg) it was 14.5 ± 1.6 days; in the data set with L1210 leukemia (24 mg/kg) it was 9.6 ± 1.1 days. The transport efflux k in data set [3] was determined as 0.213 min⁻¹.

These data come from patent US4746659A, “Diastereomers of 10-alkyl-10-deazaminopterins and process for preparing the same” (priority 1985, dated 1988).
